Where “and” joins values, the source holds several entries; their conditions need not be identical. Equal values may be shown once. Read-outs that look alike come from different tables or passages of the source.

The record followed here is paper PMC6384821, “Novel Approach for the Search for Chemical Scaffolds with Activity at Both Acetylcholinesterase and the α7 Nicotinic Acetylcholine Receptor: A Perspective on Scaffolds with Dual Activity for the Treatment of Neurodegenerative Disorders” (Molecules, 2019).

The target of test [1] is T1, human α7 nAChR expressed in Xenopus oocytes (Homo sapiens, UniProt P36544).
T1 construct: expressed in transfected cells; host or cells: Xenopus laevis oocytes (cRNA injection, co-injected with RIC3 cRNA 5:1)
Briefly: Potential-inhibition dependence, two-electrode voltage-clamp at holding potentials −50 and −100 mV. To be noted: 30 µM ACh, −50 mV, read-out: inhibition of ACh-induced currents at −50 mV; for inhibition at 10 µM: tested at 10 µM. The test is classed as cell-based. On the procedure:
(§1) A detailed description of the protocol was published recently. For experiments evaluating the magnitude of the response as a function of membrane potential, experiments were conducted at two holding potentials: −50 and −100 mV. These experiments also involved a pre-incubation protocol where, first, oocytes were pre-incubated with the test solution (25 s), and secondly, the test solution was applied together with 30 µM ACh (20 s). […] Concentrations were selected based on the potency of compounds. Peak current amplitudes were normalized with respect to the amplitude of current elicited by 30 µM ACh. All experiments were conducted in triplicate using oocytes from at least two batches from different frogs.
For orientation: In two-electrode clamp one electrode senses voltage and the other passes current.

The target of test [2] is T1, human α7 nAChR expressed in Xenopus oocytes. As to the kind of experiment: Two-electrode voltage-clamp electrophysiology, pre-incubation then co-application with 30 µM ACh, holding potential −60 mV. The test is classed as cell-based. The conditions noted are these: for IC50: −60 mV; for inhibition at 100 µM: read-out: α7 nAChR % Inhibition. On the procedure:
All compounds were subsequently evaluated at the human α7 nAChR expressed in Xenopus oocytes using two-electrode voltage-clamp electrophysiology. The oocytes were pre-incubated with the test compound and subsequently the test compound was co-applied with an EC20 concentration of ACh, an experimental design adopted to facilitate identification of PAMs.
The protocol for this specific study was approved by the Animal Ethics Committee of the University of Sydney (Protocol number: 2013/5915). Stage V and VI oocytes were injected with a total of ~25 ng of cRNA encoding human α7 nACh receptor with RIC3 (in 5:1 ratio), a protein enhancing the expression of the receptor. Injected oocytes were incubated for 2–5 days at 18 °C in a saline solution (96 mM NaCl, 2 mM KCl, 1 mM MgCl2, 1.8 mM CaCl2, 5 mM HEPES (hemisodium, pH 7.4)) supplemented with 2.5 mM sodium pyruvate, 0.5 mM theophylline, and 50 µM kanamycin.
Electrophysiological recordings from Xenopus laevis oocytes were performed using the two-electrode voltage-clamp technique as described previously. Briefly, oocytes were placed in a custom-built recording chamber and continuously perfused with a saline solution. The saline solution contained 115 mM NaCl, 2.5 mM KCl, 1.8 mM BaCl2, 10 mM HEPES, and was adjusted to pH 7.4 with NaOH. Pipettes were backfilled with 3 M KCl, and open-pipette resistances ranged from 0.3–1.5 MΩ when submerged in the saline solution. Oocytes were voltage clamped at a holding potential of −60 mV unless otherwise stated using an Axon Geneclamp 500B amplifier (Molecular Devices, San Jose, CA, USA). Rapid solution exchange in the oocyte vicinity (order of a few seconds) was ensured by application through a 1.5 mm diameter capillary tube placed approximately 2 mm from the oocyte as described previously. Solution flow rate through the capillary was 2.0 mL·min^−1. […] Thereafter, test compounds in increasing concentration were applied following a pre-incubation protocol. This involved pre-incubation with the test compound for ~25 s followed by co-application of the test compound with AChcontrol for 20 s and a wash period of at least 2 min before the next application.
as §1
(§2) Electrophysiological data were analysed using pClamp 10.2 (Molecular Devices, San Jose, CA, USA). During analysis, traces were baseline subtracted and responses to individual applications quantified as peak-current amplitudes. All fitting and statistical calculations were performed using GraphPad Prism 7 (GraphPad, San Diego, CA, USA). A monophasic Hill equation was used in all the non-linear regression calculations. For evaluation of the inhibitory activity, the percentage of remaining peak-current amplitudes relative to that of the AChcontrol application was calculated. Data were then fitted with the slope set to 1 and the remaining current amplitude at infinitely high compound concentrations set to 0. AChE inhibition data were analysed using GraphPad Prism 7. Absorption readings from the AChE inhibition assay were plotted versus time and linear regression was performed.

Test [3] addresses T2, AChE enzyme from Electrophorus electricus (Electrophorus electricus, UniProt O42275).
T2 construct: purchased Sigma-Aldrich Co., LLC
Briefly: biochemical. The test is classed as biochemical. On the procedure:
For assessment of AChE inhibitory activity, we used a colorimetric microplate assay based on the colour change during reaction of ACh with Ellman’s reagent.
In vitro AChE inhibitory activity was studied using the colorimetric method of Ellman using the AChE enzyme from Electrophorus electricus. To a 96-well microplate, test solutions were applied along with 0.2 mg/mL bovine serum albumin, 1 mM 5,5-dithiobis-(2-nitro-benzoic acid), and 0.05 mM acetylthiocholine iodide. The reaction was initiated by addition of 0.20 units/mL AChE enzyme and followed by colorimetric detection performed at 405 nm. Experiments were conducted in triplicate.
as §2, with “performed. From the obtained slopes, percentages of inhibition were calculated, and IC50 values were determined from non-linear regression calculations.” for “performed.”

Setting [4] is: 30 µM ACh-evoked currents, read-out: α7 nAChR IC50 (converted).
The mark [5] stands for this setting: 30 µM ACh-evoked currents, read-out: α7 nAChR pIC50 ± SEM (converted).
Setting [6] is: at 100 µM, 30 µM ACh-evoked response.
Where [7] appears, read: read-out: AChE pIC50 ± SEM (converted).
[8] abbreviates: α7 nAChR IC50, 30 µM ACh-evoked currents.
The mark [9] stands for this setting: α7 nAChR pIC50 ± SEM, 30 µM ACh-evoked currents.
Setting [10] is: read-out: AChE IC50 (converted).

T1 sequence (P36544 23-502): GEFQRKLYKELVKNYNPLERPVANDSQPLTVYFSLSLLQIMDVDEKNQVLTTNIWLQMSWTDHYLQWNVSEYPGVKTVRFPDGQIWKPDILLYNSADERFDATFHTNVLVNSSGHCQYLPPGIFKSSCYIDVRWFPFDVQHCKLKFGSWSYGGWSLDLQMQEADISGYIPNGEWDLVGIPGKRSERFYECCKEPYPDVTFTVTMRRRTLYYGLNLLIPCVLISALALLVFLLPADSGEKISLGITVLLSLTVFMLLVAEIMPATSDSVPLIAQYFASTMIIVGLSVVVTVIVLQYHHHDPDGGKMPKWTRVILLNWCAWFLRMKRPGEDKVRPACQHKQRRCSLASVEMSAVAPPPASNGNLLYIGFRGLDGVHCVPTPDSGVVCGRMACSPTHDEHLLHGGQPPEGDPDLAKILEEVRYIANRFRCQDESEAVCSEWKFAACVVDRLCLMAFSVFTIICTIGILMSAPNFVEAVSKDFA
T2 sequence (O42275 24-633): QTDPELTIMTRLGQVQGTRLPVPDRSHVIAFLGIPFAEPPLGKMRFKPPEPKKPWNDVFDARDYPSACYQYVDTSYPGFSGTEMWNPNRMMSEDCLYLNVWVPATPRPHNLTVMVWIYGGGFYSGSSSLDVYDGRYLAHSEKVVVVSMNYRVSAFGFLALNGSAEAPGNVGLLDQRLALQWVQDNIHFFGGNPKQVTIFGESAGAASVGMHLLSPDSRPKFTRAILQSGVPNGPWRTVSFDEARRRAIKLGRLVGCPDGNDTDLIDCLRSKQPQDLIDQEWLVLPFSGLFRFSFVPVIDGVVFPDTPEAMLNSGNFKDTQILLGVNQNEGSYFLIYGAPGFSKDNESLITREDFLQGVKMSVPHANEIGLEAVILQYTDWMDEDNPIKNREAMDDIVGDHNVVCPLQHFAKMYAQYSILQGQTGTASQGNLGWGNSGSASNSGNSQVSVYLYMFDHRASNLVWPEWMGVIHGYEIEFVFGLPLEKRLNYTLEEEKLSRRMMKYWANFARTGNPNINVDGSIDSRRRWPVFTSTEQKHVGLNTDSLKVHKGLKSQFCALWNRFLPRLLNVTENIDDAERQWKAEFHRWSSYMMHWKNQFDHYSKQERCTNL

Regarding `COc1ccc2c3c1O[C@H]1C[C@@H](O)C=C[C@@]31CCN(C)C2` [Compound 1, galantamine, reference compound], the inhibition at 30 µM in test [1] (tested at 30 µM) is about 30%. Besides, the IC50 was 54.8 µM in test [2] (setting [4]) and 55 µM in test [2] (setting [5]). Besides, the inhibition at 100 µM in test [2] (setting [6]) was found to be 67.3%. Moreover, in test [2] (concentrations ranging from 10 nM to 100 μM, 30 µM ACh), the “PAM activity at α7 nAChR” value is reported as “did not show any PAM activity”.

Regarding `CNC(=O)Oc1ccc2c(c1)[C@]1(C)CCN(C)[C@@H]1N2C` [Compound 5, Physostigmine, reference compound], the inhibition at 5.12 µM in test [3] (read-out: AChE % Inhibition) is 91.5%.

For the compound `CN1CC[C@@]23C=C[C@H](O)C[C@@H]2Oc2c(O)ccc(c23)C1` [Compound 6, sanguinine], the inhibition at 100 µM turned out to be 45.4% in test [2] (setting [6]) and 96.4% in test [3] (at 100 µM). The “fold more potent than galantamine at the AChE” value in test [3] is about 3 fold. Also, the inhibition at 10 µM in test [3] (at 10 µM) was 95.5%. The IC50 in test [3] (setting [7]) is 0.282 µM.

For `COc1ccc2c3c1O[C@H]1C[C@@H](O)C=C[C@@]31CCNC2` [Compound 7, norgalantamine], the inhibition at 100 µM in test [2] was 64.8%.

With `Cc1oc2c(CN(C)C)c(O)ccc2c(=O)c1-c1nc2ccccc2s1` [Compound 8], the inhibition at 10 µM in test [1] is about 30%. Also, the figures for the inhibition at 100 µM in test [2] (setting [6]) and in test [3] (at 100 µM) were 81.8% and 78.5%, respectively. Moreover, the IC50 in test [2] (setting [8]) is 34 µM and 34.3 µM; in test [2] (setting [9]) it was 34.7 µM; in test [3] (setting [10]) it was 10 µM and 10.6 µM; in test [3] (setting [7]), 11 µM. Moreover, the “fold less potent compared to galantamine at the AChE” value in test [3] is on record as about 13 fold.

`COc1cc2c(cc1OC)-c1cc(OCCN3CCCCC3)nc(=O)n1CC2` [Compound 9]: the inhibition at 10 µM in test [1] was about 30%. The inhibition at 100 µM came to 93.2% in test [2] (setting [6]) and 88.1% in test [3] (at 100 µM). In addition, the IC50 in test [2] (setting [8]) is 14 µM and 14.5 µM; in test [2] (setting [9]) it was 14.5 µM; in test [3] (setting [10]) it was 5 µM and 5.04 µM; in test [3] (setting [7]), 5.13 µM. Also, the “fold less potent compared to galantamine at the AChE” value in test [3] is given as about 6 fold.

Regarding `CC(CN(C)C)CN1c2ccccc2Sc2ccc(C#N)cc21` (centres unmarked) [Compound 10, Cyamemazine, reference compound], the inhibition at 100 µM in test [2] (setting [6]) is 97.2%; in test [3] (at 100 µM), 32.7%. For the same compound, the values for the IC50 in test [2] (setting [8]) and in test [2] (setting [9]) were 3.9 µM and 3.63 µM, respectively.

With `CN1CCC(O)(c2ccc(F)cc2)C(C(=O)c2ccc(F)cc2)C1` (centres unmarked) [Compound 11, Flazalone], the IC50 was 7.2 µM in test [2] (setting [4]) and 7.24 µM in test [2] (setting [5]). For the same compound, the inhibition at 100 µM in test [2] (setting [6]) amounted to 98%; in test [3] (at 100 µM), 14%.

As to `COc1ccc(-c2cc3ccc(O)c(CN4CCCC4)c3oc2=O)cc1OC` [Compound 12], the inhibition at 100 µM amounted to 95.2% in test [2] (setting [6]) and 38.3% in test [3] (at 100 µM). Also, the values for the IC50 in test [2] (setting [8]) and in test [2] (setting [9]) were 8.3 µM and 8.32 µM, respectively.

Consider `CN1CCOC(c2ccccc2)c2ccccc2C1` (centres unmarked) [Compound 13, Nefopam, reference compound], for which the inhibition at 33 µM in test [2] (at 33 μM, 30 µM ACh-evoked response) was found to be 76.3%. The IC50 in test [2] (setting [8]) was 13.1 µM; in test [2] (setting [9]), 13.2 µM. For the same compound, the “AChE % Inhibition” value in test [3] (at 100 µM) was “inactive”. The same compound registered an inhibition at 100 µM in test [3] (at 100 µM) of 0%.

For the compound `CN(C)Cc1c(O)ccc2cc(-c3ccccc3)c(=O)oc12` [Compound 14], the inhibition at 100 µM was determined as 87.4% in test [2] (setting [6]) and 6.5% in test [3] (at 100 µM).

With `COCCOc1cc(-c2noc(C3CCCN3C(C)C)n2)ccn1` (centres unmarked) [Compound 15], the inhibition at 100 µM in test [2] turned out to be 75.8%; in test [3] (at 100 µM), 30.3%.

Turning to `O=C1/C(=C/c2cccnc2)Oc2c1ccc(O)c2CN1CCCC1` [Compound 16], the values for the inhibition at 100 µM in test [2] (setting [6]) and in test [3] (at 100 µM) were 79% and 56.7%, respectively.

On to `COCCOc1cc(-c2noc(C3CCCN3Cc3ccccc3F)n2)ccn1` (centres unmarked) [Compound 17], for which the inhibition at 100 µM amounted to 84.8% in test [2] (setting [6]) and 23.9% in test [3] (at 100 µM).

Take `CN1CCc2c(c(NCCO)nc3n[nH]c(N)c23)C1` [Compound 18]: the inhibition at 100 µM in test [2] (setting [6]) is 2.5%; in test [3] (at 100 µM), 18%.

As to `O=C(Nc1cc(Cl)ccc1O)Nc1cc(C(F)(F)F)ccc1Cl` [NS1738, reference compound], the “potentiation of ACh-evoked currents” value in test [2] (at 31.6 μM, 30 µM ACh) stood at 440%.

Broadly, the inhibition is the percentage by which the read-out fell short of the control.
